Assay results from patent publication EP0908457B1, “3-(1,2-benzisothiazol- and isoxazol-5-Y1)-2,4(1H,3H)-pyrimidinedione or thione and 3-(1,2-benzisothiazol- and isoxazol-5-y1)-4(3H)-pyrimidinone or thione herbicidal agents” (BASF AKTIENGESELLSCHAFT, priority 1997, dated 1999).

How the values were obtained:
[1] = tested on: Echinochloa oryzoides (Ard.) Fritsch.; test: Preemergence weed control under flooded paddy conditions, ECHORC (Watergrass (Calif.)); assay type: in vivo; conditions: preemergence, flooded paddy
[2] = tested on: Oryza sativa, (L.) Tebonnet; test: Rice tolerance to post-transplant applications under flooded paddy conditions (Example 187), ORYSAT (Rice, Tebonnet)
[3] = tested on: Sagittaria pygmaea, L.; test: Preemergence weed control under flooded paddy conditions, SAGPY (Arrowhead (Pygmaea)); assay type: in vivo; conditions: preemergence, flooded paddy
[4] = tested on: Cyperus serotinus, Rottb.; test: Preemergence weed control under flooded paddy conditions, CYPSE (Flatsedge); assay type: in vivo; conditions: preemergence
[5] = tested on: Monochoria vaginalis, Presl.; test: Preemergence weed control under flooded paddy conditions, MOOVA (Monochoria); assay type: in vivo; conditions: preemergence, flooded paddy
[6] = tested on: Cyperus iria; test: Preemergence weed control under flooded paddy conditions, CYPIR (Rice Flatsedge); assay type: in vivo; conditions: preemergence, flooded paddy
[7] = Rate 0.0320 kg/ha, rated 3-4 weeks after treatment
[8] = Rate 0.0620 kg/ha, rated 3-4 weeks after treatment
[9] = Rate 0.1250 kg/ha, rated 3-4 weeks after treatment
[10] = Rate 0.2500 kg/ha, rated 3-4 weeks after treatment
[11] = Rate 0.5000 kg/ha, rated 3-4 weeks after treatment
[12] = Rate 0.0320 kg/ha, rated three to four weeks after treatment
[13] = Rate 0.0620 kg/ha, rated three to four weeks after treatment
[14] = Rate 0.1250 kg/ha, rated three to four weeks after treatment
[15] = Rate 0.2500 kg/ha, rated three to four weeks after treatment
Also: meaning of each grade not given here.

For Cn1c(C(F)(F)F)cc(=O)n(-c2ccc3snc(-c4ccccc4OCC(N)=O)c3c2)c1=O [Example 548, Acetamide, 2-{o-{5-[3,6-dihydro-3-methyl-2,6-dioxo-4-(trifluoromethyl)-1(2H)-pyrimidinyl]-1,2-benzisothiazol-3-yl}phenoxy}-], the “herbicidal effect rating, ECHORC” value [1, 7] was 2.9, the “herbicidal effect rating, ECHORC” value [1, 8] was 3.7 and the “herbicidal effect rating, ECHORC” value [1, 9] was 4.9. For the same compound, the “herbicidal effect rating, ECHORC” value [1, 10] was 9.0, the “herbicidal effect rating, ECHORC” value [1, 11] was 6.0 and the “herbicidal effect rating ORYSAT” value [2, 7] was 3.0. The “herbicidal effect rating ORYSAT” value [2, 8] was 2.0, the “herbicidal effect rating ORYSAT” value [2, 9] was 4.0 and the “herbicidal effect rating ORYSAT” value [2, 10] was 6.0. The “herbicidal effect rating ORYSAT” value [2, 11] was 4.0, the “herbicidal effect rating, SAGPY” value [3, 7] was 0.0 and the “herbicidal effect rating, SAGPY” value [3, 8] was 0.0. The “herbicidal effect rating, SAGPY” value [3, 9] was 2.0, the “herbicidal effect rating, SAGPY” value [3, 10] was 4.0 and the “herbicidal effect rating, SAGPY” value [3, 11] was 0.0. For the same compound, the “herbicidal effect rating, CYPSE” value [4, 8] was 9.0, the “herbicidal effect rating, CYPSE” value [4, 9] was 9.0 and the “herbicidal effect rating, CYPSE” value [4, 10] was 9.0. For the same compound, the “herbicidal effect rating, CYPSE” value [4, 11] was 9.0, the “herbicidal effect rating, MOOVA” value [5, 7] was 8.0 and the “herbicidal effect rating, MOOVA” value [5, 8] was 9.0. The “herbicidal effect rating, MOOVA” value [5, 9] was 9.0, the “herbicidal effect rating, MOOVA” value [5, 10] was 9.0 and the “herbicidal effect rating, MOOVA” value [5, 11] was 9.0. The “herbicidal effect rating, CYPIR” value [6, 7] was 2.0, the “herbicidal effect rating, CYPIR” value [6, 8] was 6.0 and the “herbicidal effect rating, CYPIR” value [6, 9] was 8.0. The “herbicidal effect rating, CYPIR” value [6, 10] was 9.0 and the “herbicidal effect rating, CYPIR” value [6, 11] was 0.0.

With C=CCC(C#N)(CC=C)c1nsc2ccc(-n3c(=O)cc(C(F)(F)F)n(C)c3=O)cc12 [Example 580, 1,2-Benzisothiazole-3-acetonitrile, alpha,alpha-diallyl-5-[3,6-dihydro-3-methyl-2,6-dioxo-4-(trifluoromethyl)-1(2H)-pyrimidinyl]-] the “herbicidal effect rating, ECHORC” value [1, 12] was 8.5, the “herbicidal effect rating, ECHORC” value [1, 13] was 9.0 and the “herbicidal effect rating, ECHORC” value [1, 14] was 9.0. For the same compound, the “herbicidal effect rating, ECHORC” value [1, 15] was 9.0, the “herbicidal effect rating ORYSAT” value [2, 12] was 1.5 and the “herbicidal effect rating ORYSAT” value [2, 13] was 4.0. For the same compound, the “herbicidal effect rating ORYSAT” value [2, 14] was 4.0, the “herbicidal effect rating ORYSAT” value [2, 15] was 6.5 and the “herbicidal effect rating, SAGPY” value [3, 12] was 5.5. The “herbicidal effect rating, SAGPY” value [3, 13] was 8.0, the “herbicidal effect rating, SAGPY” value [3, 14] was 8.0 and the “herbicidal effect rating, SAGPY” value [3, 15] was 8.5. The “herbicidal effect rating, CYPSE” value [4, 12] was 5.5, the “herbicidal effect rating, CYPSE” value [4, 13] was 9.0 and the “herbicidal effect rating, CYPSE” value [4, 14] was 9.0. The “herbicidal effect rating, CYPSE” value [4, 15] was 8.5, the “herbicidal effect rating, MOOVA” value [5, 12] was 4.5 and the “herbicidal effect rating, MOOVA” value [5, 13] was 9.0. The “herbicidal effect rating, MOOVA” value [5, 14] was 9.0, the “herbicidal effect rating, MOOVA” value [5, 15] was 9.0 and the “herbicidal effect rating, CYPIR” value [6, 12] was 3.0. The “herbicidal effect rating, CYPIR” value [6, 13] was 9.0, the “herbicidal effect rating, CYPIR” value [6, 14] was 9.0 and the “herbicidal effect rating, CYPIR” value [6, 15] was 9.0.

CN(C(=O)c1nsc2ccc(-n3c(=O)cc(C(F)(F)F)n(C)c3=O)cc12)S(C)(=O)=O [Example 367, 1,2-Benzisothiazole-3-carboxamide, 5-[3,6-dihydro-3-methyl-2,6-dioxo-4-(trifluoromethyl)-1(2H)-pyrimidinyl]-N-methyl-N-(methylsulfonyl)-] was tested, and the “herbicidal effect rating, ECHORC” value [1, 12] was 0.0, the “herbicidal effect rating, ECHORC” value [1, 13] was 0.0 and the “herbicidal effect rating, ECHORC” value [1, 14] was 3.0. The “herbicidal effect rating, ECHORC” value [1, 15] was 6.0, the “herbicidal effect rating ORYSAT” value [2, 12] was 0.0 and the “herbicidal effect rating ORYSAT” value [2, 13] was 0.0. The “herbicidal effect rating ORYSAT” value [2, 14] was 5.0, the “herbicidal effect rating ORYSAT” value [2, 15] was 6.0 and the “herbicidal effect rating, SAGPY” value [3, 12] was 0.0. The “herbicidal effect rating, SAGPY” value [3, 13] was 2.0, the “herbicidal effect rating, SAGPY” value [3, 14] was 5.0 and the “herbicidal effect rating, SAGPY” value [3, 15] was 9.0. The “herbicidal effect rating, CYPSE” value [4, 12] was 0.0, the “herbicidal effect rating, CYPSE” value [4, 13] was 9.0 and the “herbicidal effect rating, CYPSE” value [4, 14] was 9.0. The “herbicidal effect rating, CYPSE” value [4, 15] was 9.0, the “herbicidal effect rating, MOOVA” value [5, 12] was 9.0 and the “herbicidal effect rating, MOOVA” value [5, 13] was 9.0. The “herbicidal effect rating, MOOVA” value [5, 14] was 9.0, the “herbicidal effect rating, MOOVA” value [5, 15] was 9.0 and the “herbicidal effect rating, CYPIR” value [6, 12] was 0.0. The “herbicidal effect rating, CYPIR” value [6, 13] was 5.0, the “herbicidal effect rating, CYPIR” value [6, 14] was 7.0 and the “herbicidal effect rating, CYPIR” value [6, 15] was 9.0.

In the case of Cn1c(C(F)(F)F)cc(=O)n(-c2ccc3snc(COC(=O)Cc4ccccc4)c3c2)c1=O [Example 369, 2,4(1H,3H)-Pyrimidinedione, 3-[3-(hydroxymethyl)-1,2-benzisothiazol-5-yl]-1-methyl-6-(trifluoromethyl)-, phenylacetate (ester)], the “herbicidal effect rating, ECHORC” value [1, 12] is reported as 3.0, the “herbicidal effect rating, ECHORC” value [1, 13] is reported as 3.0 and the “herbicidal effect rating, ECHORC” value [1, 14] is reported as 6.0. For the same compound, the “herbicidal effect rating, ECHORC” value [1, 15] was 8.0, the “herbicidal effect rating ORYSAT” value [2, 12] was 6.0 and the “herbicidal effect rating ORYSAT” value [2, 13] was 6.0. The “herbicidal effect rating ORYSAT” value [2, 14] was 7.0, the “herbicidal effect rating ORYSAT” value [2, 15] was 7.0 and the “herbicidal effect rating, SAGPY” value [3, 12] was 0.0. The “herbicidal effect rating, SAGPY” value [3, 13] was 6.0, the “herbicidal effect rating, SAGPY” value [3, 14] was 9.0 and the “herbicidal effect rating, SAGPY” value [3, 15] was 9.0. For the same compound, the “herbicidal effect rating, CYPSE” value [4, 12] was 0.0, the “herbicidal effect rating, CYPSE” value [4, 13] was 3.0 and the “herbicidal effect rating, CYPSE” value [4, 14] was 4.0. For the same compound, the “herbicidal effect rating, CYPSE” value [4, 15] was 9.0, the “herbicidal effect rating, MOOVA” value [5, 12] was 9.0 and the “herbicidal effect rating, MOOVA” value [5, 13] was 9.0. The “herbicidal effect rating, MOOVA” value [5, 14] was 9.0, the “herbicidal effect rating, MOOVA” value [5, 15] was 9.0 and the “herbicidal effect rating, CYPIR” value [6, 12] was 7.0. For the same compound, the “herbicidal effect rating, CYPIR” value [6, 13] was 7.0, the “herbicidal effect rating, CYPIR” value [6, 14] was 9.0 and the “herbicidal effect rating, CYPIR” value [6, 15] was 9.0.
